From ChEMBL document CHEMBL5223073, “Andrographolide suppresses cisplatin-induced endothelial hyperpermeability through activation of PI3K/Akt and eNOS -derived nitric oxide” (Bioorg Med Chem, 2020)
Active and inactive are the calls of the source.

Legend:
[1] = target: Transcription factor p65 (Homo sapiens) (UniProt Q04206); experiment: Inhibition of cisplatin-induced phosphorylation of p65 subunit at Ser536 residue in HUVEC cells at 100 uM incubated for 1 hr by Western blot analysis; type: cell-based
Chain of Transcription factor p65 (Homo sapiens) (Q04206 whole entry): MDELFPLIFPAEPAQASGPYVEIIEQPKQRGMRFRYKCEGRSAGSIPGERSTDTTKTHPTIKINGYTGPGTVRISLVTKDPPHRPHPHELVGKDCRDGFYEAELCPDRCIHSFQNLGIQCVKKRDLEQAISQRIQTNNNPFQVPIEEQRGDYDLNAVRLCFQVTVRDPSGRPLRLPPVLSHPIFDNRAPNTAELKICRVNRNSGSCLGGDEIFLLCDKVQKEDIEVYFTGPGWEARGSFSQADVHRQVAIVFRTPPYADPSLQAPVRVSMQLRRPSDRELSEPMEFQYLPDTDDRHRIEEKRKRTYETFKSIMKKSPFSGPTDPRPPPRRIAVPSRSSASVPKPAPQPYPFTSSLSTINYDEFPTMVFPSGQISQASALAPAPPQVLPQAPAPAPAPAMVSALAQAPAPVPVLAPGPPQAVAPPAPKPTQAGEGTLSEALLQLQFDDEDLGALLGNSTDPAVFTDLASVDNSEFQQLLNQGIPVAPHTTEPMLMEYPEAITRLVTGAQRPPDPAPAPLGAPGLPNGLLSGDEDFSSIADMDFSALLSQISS

[2] = test system: HUVEC; experiment: Inhibition of cisplatin-induced TRPC1 phosphorylation in [32P] orthophosphate labeled HUVEC cells at 100 uM incubated for 15 mins in presence of cisplatin by Western blot analysis; type: cell-based; details: Homo sapiens
[3] = target: Nuclear factor NF-kappa-B complex (Homo sapiens) (UniProt Q00653+P19838+Q04206); experiment: Inhibition of cisplatin-induced NF-kappaB activation in HUVEC cell nuclear extract assessed as reduction in NF-kappaB-DNA binding activity at 100 uM incubated for 1 hr by electrophoretic mobility shift assay; type: subcellular; details: Nucleus
Chain of Nuclear factor NF-kappa-B complex (Homo sapiens) (P19838 whole entry, looked up): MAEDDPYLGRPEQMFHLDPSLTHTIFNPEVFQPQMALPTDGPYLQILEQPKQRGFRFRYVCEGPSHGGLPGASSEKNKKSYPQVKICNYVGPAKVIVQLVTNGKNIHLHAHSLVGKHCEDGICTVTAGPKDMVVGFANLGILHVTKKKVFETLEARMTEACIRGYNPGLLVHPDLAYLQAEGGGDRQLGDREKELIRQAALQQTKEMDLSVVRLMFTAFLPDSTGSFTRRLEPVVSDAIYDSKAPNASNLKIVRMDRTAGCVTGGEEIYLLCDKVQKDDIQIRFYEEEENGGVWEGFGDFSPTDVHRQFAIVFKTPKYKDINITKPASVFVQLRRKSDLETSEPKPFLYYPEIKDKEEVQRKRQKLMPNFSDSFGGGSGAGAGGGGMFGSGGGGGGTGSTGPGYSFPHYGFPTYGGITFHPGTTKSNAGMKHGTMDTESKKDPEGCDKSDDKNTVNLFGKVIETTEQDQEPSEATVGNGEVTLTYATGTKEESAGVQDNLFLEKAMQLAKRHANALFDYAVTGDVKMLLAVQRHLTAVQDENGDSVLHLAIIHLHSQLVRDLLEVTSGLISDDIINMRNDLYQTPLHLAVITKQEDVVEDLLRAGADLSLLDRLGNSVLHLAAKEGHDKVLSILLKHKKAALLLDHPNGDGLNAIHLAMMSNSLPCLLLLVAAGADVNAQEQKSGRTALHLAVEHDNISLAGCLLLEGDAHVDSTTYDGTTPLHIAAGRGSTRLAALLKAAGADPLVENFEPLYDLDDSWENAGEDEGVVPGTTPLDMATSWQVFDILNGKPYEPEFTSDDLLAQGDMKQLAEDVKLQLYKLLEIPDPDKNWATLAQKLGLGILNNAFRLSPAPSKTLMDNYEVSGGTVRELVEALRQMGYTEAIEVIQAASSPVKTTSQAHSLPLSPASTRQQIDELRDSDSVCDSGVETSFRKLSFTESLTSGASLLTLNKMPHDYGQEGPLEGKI
Chain of Nuclear factor NF-kappa-B complex (Homo sapiens) (Q00653 whole entry, looked up): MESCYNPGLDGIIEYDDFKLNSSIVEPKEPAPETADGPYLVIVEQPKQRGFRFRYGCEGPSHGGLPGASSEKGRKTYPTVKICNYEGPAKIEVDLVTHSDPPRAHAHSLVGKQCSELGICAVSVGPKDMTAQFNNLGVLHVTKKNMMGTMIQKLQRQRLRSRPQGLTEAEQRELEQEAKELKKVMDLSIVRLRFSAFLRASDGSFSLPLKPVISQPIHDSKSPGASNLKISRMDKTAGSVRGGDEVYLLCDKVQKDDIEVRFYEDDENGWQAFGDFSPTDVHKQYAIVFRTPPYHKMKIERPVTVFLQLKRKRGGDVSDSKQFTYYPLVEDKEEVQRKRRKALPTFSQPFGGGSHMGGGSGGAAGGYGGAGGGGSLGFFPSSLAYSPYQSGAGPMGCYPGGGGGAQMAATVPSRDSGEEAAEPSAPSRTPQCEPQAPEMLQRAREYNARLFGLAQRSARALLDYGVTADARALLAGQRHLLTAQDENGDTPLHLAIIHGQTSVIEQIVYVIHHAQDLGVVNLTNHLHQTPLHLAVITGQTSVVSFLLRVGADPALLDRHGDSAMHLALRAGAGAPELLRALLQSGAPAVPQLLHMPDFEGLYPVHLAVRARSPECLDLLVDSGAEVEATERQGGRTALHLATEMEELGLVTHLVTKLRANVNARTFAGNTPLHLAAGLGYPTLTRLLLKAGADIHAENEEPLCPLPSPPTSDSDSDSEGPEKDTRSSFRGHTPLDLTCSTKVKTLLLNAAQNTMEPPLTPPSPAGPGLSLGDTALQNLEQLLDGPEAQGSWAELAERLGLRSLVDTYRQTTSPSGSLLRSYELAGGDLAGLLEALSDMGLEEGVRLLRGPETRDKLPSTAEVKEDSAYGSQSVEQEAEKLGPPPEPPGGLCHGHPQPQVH
Chain of Nuclear factor NF-kappa-B complex (Homo sapiens) (Q04206 whole entry, looked up): as the sequence (Q04206 whole entry) above

[4] = test system: HUVEC; experiment: Inhibition of cisplatin-induced store operated Ca2+ release in HUVEC cells at 100 uM preincubated with compound followed by cisplatin stimulation by Fura-2 AM staining based calcium influx assay; type: functional, cell-based; details: Homo sapiens
[5] = target: T1, NF-kappa-B inhibitor alpha (Homo sapiens) (UniProt P25963); experiment: Inhibition of cisplatin-induced phosphorylation of IkappaBalpha at Ser32/36 residue in HUVEC cells at 100 uM incubated for 1 hr by Western blot analysis; type: cell-based
T1 sequence (whole entry): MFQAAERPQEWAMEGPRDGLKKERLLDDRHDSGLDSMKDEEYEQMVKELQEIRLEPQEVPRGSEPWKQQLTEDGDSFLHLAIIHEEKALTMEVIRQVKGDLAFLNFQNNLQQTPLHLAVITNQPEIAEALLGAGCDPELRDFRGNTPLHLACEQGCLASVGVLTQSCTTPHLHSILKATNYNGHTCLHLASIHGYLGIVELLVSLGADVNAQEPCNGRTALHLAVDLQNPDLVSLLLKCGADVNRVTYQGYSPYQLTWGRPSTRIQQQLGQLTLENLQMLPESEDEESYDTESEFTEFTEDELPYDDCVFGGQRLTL

[6] = test system: HUVEC; experiment: Improvement in cisplatin-induced endothelial monolayer integrity in HUVEC cells assessed as increase in transendothelial electric resistance at 100 uM preincubated with compound followed by cisplatin stimulation and measured after 45 mins; type: functional, cell-based; details: Homo sapiens
[7] = test system: HUVEC; experiment: Inhibition of cisplatin-induced PKCalpha translocation in HUVEC cells at 100 uM incubated for 15 mins in presence of cisplatin by Western blot analysis; type: functional, cell-based; details: Homo sapiens
[8] = test system: HUVEC; experiment: Inhibition of cisplatin-induced TRPC1 phosphorylation in [32P] orthophosphate labeled HUVEC cells at […] incubated for 15 mins in presence of cisplatin by Western blot analysis; type: cell-based; details: Homo sapiens

CC(=O)N[C@@H](C(=O)O)C(C)(C)SN=O
active: inhibition [1] | inhibition [2] | inhibition [3] | inhibition [4] | inhibition [5] | Activity [6] | inhibition [7]

Cn1c2ccccc2c2c3c(c4c5ccccc5n(CCC#N)c4c21)CNC3=O
active: inhibition [8]
